Measurements reported in the OligoGym collection.
Several values for one entry are separate records, joined by “and”; a condition that tells them apart may be missing. Identical values can stand only once. After the bases stand the sugars from the 5' end (letter, count) and the backbone: PS all phosphorothioate, else s phosphorothioate and o phosphodiester by linkage. Methylation of C is not given here. e = 2'-O-(2-methoxyethyl) (MOE); k = constrained ethyl (cEt); d = 2'-deoxy (DNA)

Target: SOD1
Details: ASO

## GTTTTATAAAACTATAC (sugars e3 k2 d7 k2 e3, PS)
HepG2, 3 µM
  target mRNA inhibition: 22%

## TAAAGTGAGGACCTGCA (sugars e3 k2 d7 k2 e3, PS)
HepG2, 3 µM
  target mRNA inhibition: 19%

## TAATAAGTGCCATACAG (sugars e2 k2 d9 k2 e2, PS)
HepG2, 5 µM
  target mRNA inhibition: 30%

## TAATACCCATCTGTGAT (sugars e3 k2 d7 k2 e3, PS)
HepG2, 3 µM
  target mRNA inhibition: 4%

## TAATGCTTCCCCACACC (sugars e3 k2 d7 k2 e3, PS)
HepG2, 3 µM
  target mRNA inhibition: 52%

## TAATGTTTATCAGGAT (sugars ekddddddddekekee, linkages s1 o1 s8 o3 s2)
A431, 0.12 µM
  target mRNA inhibition: 1%
A431, 0.6 µM
  target mRNA inhibition: 9%
A431, 3 µM
  target mRNA inhibition: 22%
A431, 15 µM
  target mRNA inhibition: 46%

## TAATGTTTATCAGGATA (sugars e2 k2 d9 k2 e2, PS)
HepG2, 0.1875 µM
  target mRNA inhibition: 28%
HepG2, 0.75 µM
  target mRNA inhibition: 66%
HepG2, 3 µM
  target mRNA inhibition: 91%
HepG2, 4 µM
  target mRNA inhibition: 85% and 82%
HepG2, 12 µM
  target mRNA inhibition: 93% and 98%

## TACACCACAAGCCAAAC (sugars e2 k2 d9 k2 e2, PS)
HepG2, 4 µM
  target mRNA inhibition: 63%

## TACAGCTAGCAGGATAA (sugars e3 k2 d7 k2 e3, PS)
HepG2, 3 µM
  target mRNA inhibition: 40%

## TACAGGTACTTTAAAGC (sugars e2 k2 d9 k2 e2, PS)
HepG2, 5 µM
  target mRNA inhibition: 26%

## TACAGGTCATTGAAACA (sugars e2 k2 d9 k2 e2, PS)
HepG2, 5 µM
  target mRNA inhibition: 38%

## TACATCCAAGGGAATGT (sugars e3 k2 d7 k2 e3, PS)
HepG2, 3 µM
  target mRNA inhibition: 30%

## TACCCATCTGTGATTTA (sugars e2 k2 d9 k2 e2, PS)
HepG2, 5 µM
  target mRNA inhibition: 45%

## TAGCAGGATAACAGATG (sugars e3 k2 d7 k2 e3, PS)
HepG2, 3 µM
  target mRNA inhibition: 34%

## TAGCCTCATAATAAGTG (sugars e2 k2 d8 k2 e3, PS)
HepG2, 5 µM
  target mRNA inhibition: 11%

## TATTGGGCGATCCCAAT (sugars e3 k2 d7 k2 e3, PS)
HepG2, 3 µM
  target mRNA inhibition: 3%

## TCACACAATTACACTTT (sugars e2 k2 d8 k2 e3, PS)
HepG2, 5 µM
  target mRNA inhibition: 28%

## TCAGACTACATCCAAGG (sugars e3 k2 d7 k2 e3, PS)
HepG2, 0.1875 µM
  target mRNA inhibition: 19%
HepG2, 0.75 µM
  target mRNA inhibition: 51%
HepG2, 3 µM
  target mRNA inhibition: 57% and 74%
HepG2, 12 µM
  target mRNA inhibition: 85%

## TCAGCACGCACACGGCCTTC (sugars e5 d10 e5, PS)
HepG2, 0.1875 µM
  target mRNA inhibition: 6%
HepG2, 0.75 µM
  target mRNA inhibition: 12%
HepG2, 3 µM
  target mRNA inhibition: 51%
HepG2, 4 µM
  target mRNA inhibition: 52%
HepG2, 12 µM
  target mRNA inhibition: 88%

## TCAGGATACATTTCTACAGC (sugars e5 d10 e5, linkages s1 o3 s11 o3 s1)
A431, 0.12 µM
  target mRNA inhibition: 9%
A431, 0.6 µM
  target mRNA inhibition: 8%
A431, 3 µM
  target mRNA inhibition: 21%
A431, 15 µM
  target mRNA inhibition: 49%
HepG2, 0.222 µM
  target mRNA inhibition: 25%
HepG2, 0.667 µM
  target mRNA inhibition: 50%
HepG2, 2 µM
  target mRNA inhibition: 92%
HepG2, 6 µM
  target mRNA inhibition: 73%
